Test results: patent US11278550B2, “Compositions and methods for the treatment of Prader-Willi syndrome” (Duke University, priority 2016, dated 2022)
“Also recorded” adds a separate entry of the source.

What was measured:
[1] = system: human PWS fibroblast cells; test: Cell viability (CellTox Green Cytotoxicity Assay); assay type: cell-based; conditions: 1-4 μM, 72 hours
Experimental: Cell viability was measured by fluorescence using CellTox™ Green Cytotoxicity Assay (Promega, cat. no. G8741) according to the manufacturer's instructions.

human PWS fibroblasts = test: Chromatin accessibility assay; assay type: cell-based; conditions: vs vehicle-treated controls
Experimental: Chromatin accessibility assay was performed to investigate whether G9a inhibitors change open/close state of the imprinted cluster in the PWS-IC region according to Pai, C.C., et al. Nature communications 5, 4091 (2014) with slight modifications. Briefly, 3 days after drug treatment in human PWS fibroblasts, the cells were harvested and lysed with lysis buffer (0.5% NP-40, 15 mM Tris-HCl [pH 7.4], 0.15 mM Spermidine, 0.5 mM Spermine, 15 mM NaCl, 60 mM KCl, 1 mM DTT, 0.1 mM PMSF, 0.5M Sucrose, Protease and Phosphatase inhibitor cocktail (Roche)). The lysed cells were collected by centrifugation (3000 RPM/10 min/4° C.) and rinsed with digestive buffer (15 mM Tris-HCl [pH 7.4], 15 mM NaCl, 60 mM KCl, 4 mM MgCl2, 1 mM DTT, 0.1 mM PMSF, 0.35M Sucrose). After rinsing the cell pellets, MNase (NEB) was added to digest open status of chromatins, followed by genomic qPCR to determine changes in amount of SNRPN and other imprinted genes.

m+/pΔS-U and WT mice = test: Toxicity evaluation in mice (body weight, neurological screening, blood, histopathology); assay type: in vivo, mouse
Experimental: Brain, liver, lung, kidney and heart tissues from 3-month-old mice were fixed in 10% neutral buffered formalin (NBF: 10 ml of Formalin (37% stock), 90 ml of deionized water, 4 g/liter of NaH2PO4, 6.5 g/liter Na2HPO4), embedded in paraffin, sectioned at 5 μm, stained with hematoxylin and eosin, and images examined by a board-certified toxicological pathologist.
Blood was collected from 3-month-old mice into microcontainers or hematology assay tubes using jugular vein bleeding puncture. A serum metabolic panel was obtained using the Heska Dry Chem analyzer (Cuattro Veterinary USA). The metabolic panel contained chem and electrolyte, liver and kidney functions. For hematology analysis, we tested whole blood using Procyte (IDEXX).
General health of mice was evaluated using a modified version of standard test battery for behavioral phenotyping (see 57). Observational assessment included the evaluation of body weight, body core temperature, overt behavioral signs (coat appearance, body posture and secretary signs) and sensory functions (visual ability, audition, tactile percep- tion and vestibular function). Table 6 indicates the mouse sex and age information.

PWS-IC = test: Bisulfite genomic sequencing of PWS-IC, liver of PWS mice; assay type: in vivo; conditions: livers from PWS mouse models
Experimental: Genomic DNA was isolated from human PWS fibroblasts or mouse tissues. DNA (1 μg) was then treated by bisulfite using the Epi-Tect bisulfite kit (Qiagen), and 125 ng input DNA was used per PCR amplification. PCR products were sub-cloned into pGEM-T easy vector (Promega) and an average of 15 clones were sequenced. DNA sequencing results were analyzed using BISMA web-based analysis platform with a setting for individual clones with <95% bisulfite conversion and <90% sequence identity to be excluded in the analysis.

G9a = target: T1, G9a (Mus musculus, UniProt Q9Z148); conditions: single dose of 5 mg/kg i.p.; cited from earlier work
T1 construct: from tissue
T1 sequence (Q9Z148 1-1263): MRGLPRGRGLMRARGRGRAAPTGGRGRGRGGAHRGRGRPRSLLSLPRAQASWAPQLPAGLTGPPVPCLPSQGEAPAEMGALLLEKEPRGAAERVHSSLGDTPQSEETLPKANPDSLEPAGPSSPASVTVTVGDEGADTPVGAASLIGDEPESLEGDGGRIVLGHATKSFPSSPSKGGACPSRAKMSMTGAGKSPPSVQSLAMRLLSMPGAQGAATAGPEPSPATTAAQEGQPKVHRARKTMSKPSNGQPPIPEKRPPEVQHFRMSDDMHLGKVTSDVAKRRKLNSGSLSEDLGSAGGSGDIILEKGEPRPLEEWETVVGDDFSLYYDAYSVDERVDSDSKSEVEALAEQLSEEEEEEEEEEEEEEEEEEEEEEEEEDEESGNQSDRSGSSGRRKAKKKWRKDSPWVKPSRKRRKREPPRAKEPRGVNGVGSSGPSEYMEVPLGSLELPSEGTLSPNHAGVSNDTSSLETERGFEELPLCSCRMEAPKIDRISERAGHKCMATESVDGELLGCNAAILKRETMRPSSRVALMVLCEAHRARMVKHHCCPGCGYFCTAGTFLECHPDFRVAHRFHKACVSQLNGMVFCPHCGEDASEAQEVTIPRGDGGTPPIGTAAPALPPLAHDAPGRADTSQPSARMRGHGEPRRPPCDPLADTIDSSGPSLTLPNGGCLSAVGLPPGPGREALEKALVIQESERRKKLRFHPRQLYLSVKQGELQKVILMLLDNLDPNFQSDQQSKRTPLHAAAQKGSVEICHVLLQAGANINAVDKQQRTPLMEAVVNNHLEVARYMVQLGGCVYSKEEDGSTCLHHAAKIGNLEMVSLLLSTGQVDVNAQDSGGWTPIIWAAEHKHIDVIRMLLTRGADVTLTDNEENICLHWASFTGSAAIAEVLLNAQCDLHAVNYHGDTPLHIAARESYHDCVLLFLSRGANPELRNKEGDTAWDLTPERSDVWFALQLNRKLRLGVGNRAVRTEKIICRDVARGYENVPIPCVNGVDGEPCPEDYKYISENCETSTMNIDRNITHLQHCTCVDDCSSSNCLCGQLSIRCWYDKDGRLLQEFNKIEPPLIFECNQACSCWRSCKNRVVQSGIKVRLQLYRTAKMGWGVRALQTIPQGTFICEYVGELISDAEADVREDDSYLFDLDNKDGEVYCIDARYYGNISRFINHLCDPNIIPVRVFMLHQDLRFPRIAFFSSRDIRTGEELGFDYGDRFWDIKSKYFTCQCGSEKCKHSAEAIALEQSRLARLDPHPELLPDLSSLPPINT

Which cytotoxicity [1] does the source give for `COc1cc2c(NC3CCN(C(C)C)CC3)nc(C3CCCCC3)nc2cc1OCCCN1CCCC1` [UNC0638] here?
The cytotoxicity was “minimal cytotoxicity”.

What about the “chromatin accessibility across the imprinted domains incl. SNRPN and SNORD116” value (human PWS fibroblasts) of the same compound?
Its value is “more open and accessible”.

With `COc1cc2c(NC3CCN(C(C)C)CC3)nc(N3CCC(F)(F)CC3)nc2cc1OCCCN1CCCC1` [UNC0642] as the compound, how does the “loss of body weight” value (m+/pΔS-U and WT mice; WT mice) read?
Its value is “not observed”.

And the “general health and neurological screening” value (m+/pΔS-U and WT mice; blinded)?
Its value is “did not reveal any substantial abnormalities”.

And the histopathological analyses (m+/pΔS-U and WT mice; brain, liver, kidney, lung and heart, P90 / 3 months)?
The histopathological analyses was “did not reveal any abnormalities; also recorded: no significant compound related lesions”.

What about the “hematological analysis (liver and kidney functions, lipid and protein metabolism)” value (m+/pΔS-U and WT mice; treated m+/pΔS-U and WT mice) of the same compound?
The value was “within normal ranges”.

And the “DNA methylation of the PWS-IC” value (PWS-IC)?
Its value is “did not significantly alter”.

And the “inhibition of G9a activity in adult mice” value (G9a)?
Its value is “sufficient to inhibit G9a activity”.
